{"source": "patent US7939520B2", "about": "“Aminoazacyclyl-3-sulfonylindazoles as 5-hydroxytryptamine-6 ligands” (Wyeth LLC, priority 2007, dated 2011)"}
{"target": "T1, human cloned 5-HT6 receptors (Homo sapiens, UniProt P50406)", "T1 construct": "expressed in transfected cells; host or cells: HeLa cells", "T1 sequence (P50406 whole entry)": "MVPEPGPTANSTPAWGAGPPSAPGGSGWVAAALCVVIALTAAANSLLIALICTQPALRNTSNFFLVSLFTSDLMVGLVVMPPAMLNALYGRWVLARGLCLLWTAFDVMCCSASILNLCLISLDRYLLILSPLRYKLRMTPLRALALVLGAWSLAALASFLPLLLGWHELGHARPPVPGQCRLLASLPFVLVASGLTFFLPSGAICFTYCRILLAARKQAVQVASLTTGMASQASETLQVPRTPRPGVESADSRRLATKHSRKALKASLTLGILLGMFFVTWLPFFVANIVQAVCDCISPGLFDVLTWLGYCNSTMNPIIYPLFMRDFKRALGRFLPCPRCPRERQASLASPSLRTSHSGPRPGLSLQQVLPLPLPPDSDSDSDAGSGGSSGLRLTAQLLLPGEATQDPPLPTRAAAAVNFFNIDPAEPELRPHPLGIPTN", "assay": "5-HT6 binding affinity, [3H]-LSD displacement on membranes of Hela cells", "details": "not given", "units": {"Ki": "nM"}}
{"compound": "CC(C)Cn1nc2ccc(N3CC[C@H](N)C3)cc2c1S(=O)(=O)c1cccc2ccccc12", "note": "[Example 20]", "Ki": 75.8}
{"compound": "Cn1nc2ccc(N3CC[C@H](N)C3)cc2c1S(=O)(=O)c1cccc2ccccc12", "note": "[Example 18]", "Ki": 54.3}
{"compound": "CC(C)n1nc2ccc(N3CC[C@H](N)C3)cc2c1S(=O)(=O)c1cccc2ccccc12", "note": "[Example 19]", "Ki": 48.7}
{"target": "T1, human cloned 5-HT6 receptors", "assay": "5-HT6 binding affinity, [3H]-LSD displacement on membranes of Hela cells", "details": "[3H]-LSD 3.0 nM, Hela cell membranes, 120 min, room temperature; read-out: 5-HT6 Binding Ki", "units": {"Ki": "nM"}}
{"compound": "NC1CN(c2ccc3[nH]nc(S(=O)(=O)c4cccc5ccccc45)c3c2)C1", "note": "[Example 8, 1-[3-(1-naphthylsulfonyl)-1H-indazol-5-yl]azetidin-3-amine]", "Ki": 3.5}
{"compound": "N[C@H]1CCN(c2ccc3[nH]nc(S(=O)(=O)c4ccccc4)c3c2)C1", "note": "[Example 10, (3S)-1-(3-phenylsulfonyl-1H-indazol-5-yl)pyrrolidin-3-amine]", "Ki": 131}
{"compound": "CC(C)n1nc(S(=O)(=O)c2cccc3ccccc23)c2cc(N3CC[C@@H](N)C3)ccc21", "note": "[Example 16, (R)-1-(1-isopropyl-3-(naphthalen-1-ylsulfonyl)-1H-indazol-5-yl)pyrrolidin-3-amine]", "Ki": 13.7}
{"compound": "NC1CN(c2ccc3[nH]nc(S(=O)(=O)c4ccccc4)c3c2)C1", "note": "[Example 14, 1-(3-(phenylsulfonyl)-1H-indazol-5-yl)azetidin-3-amine]", "Ki": 1.1}
{"compound": "N[C@@H]1CCN(c2ccc3[nH]nc(S(=O)(=O)c4ccccc4)c3c2)C1", "note": "[Example 11, (3R)-1-(3-phenylsulfonyl-1H-indazol-5-yl)pyrrolidin-3-amine]", "Ki": 146}
{"compound": "CN(C)[C@H]1CCN(c2ccc3[nH]nc(S(=O)(=O)c4cccc5ccccc45)c3c2)C1", "note": "[Example 13, (S)—N,N-dimethyl-1-(3-(naphthalen-1-ylsulfonyl)-1H-indazol-5-yl)pyrrolidin-3-amine]", "Ki": 50}
{"compound": "CN(C)[C@@H]1CCN(c2ccc3[nH]nc(S(=O)(=O)c4cccc5ccccc45)c3c2)C1", "note": "[Example 12, (R)—N,N-dimethyl-1-(3-(naphthalen-1-ylsulfonyl)-1H-indazol-5-yl)pyrrolidin-3-amine]", "Ki": 1.1}
{"target": "T1, human cloned 5-HT6 receptors", "assay": "5-HT6 binding affinity, [3H]-LSD displacement on membranes of Hela cells", "details": "read-out: 5-HT6 Binding Ki", "units": {"Ki": "nM"}}
{"compound": "CC(C)Cn1nc(S(=O)(=O)c2cccc3ccccc23)c2cc(N3CC[C@@H](N)C3)ccc21", "note": "[Example 17, (R)-1-(1-isobutyl-3-(naphthalen-1-ylsulfonyl)-1H-indazol-5-yl)pyrrolidin-3-amine]", "Ki": 36.9}
{"compound": "NC1CCN(c2ccc3[nH]nc(S(=O)(=O)c4cccc(Cl)c4)c3c2)CC1", "note": "[Example 5, 1-{3-[(3-chlorophenyl)sulfonyl]-1H-indazol-5-yl}piperidin-4-amine]", "Ki": 8}
{"compound": "Cn1nc(S(=O)(=O)c2cccc3ccccc23)c2cc(N3CC[C@@H](N)C3)ccc21", "note": "[Example 15, (3R)-1-[1-methyl-3-(naphthalen-1-ylsulfonyl)-1H-indazol-5-yl]pyrrolidin-3-amine]", "Ki": 21.1}
